Results reported in patent publication US12351574B2, “Selective ligands for modulation of GIRK channels” (Northeastern University, priority 2018, dated 2025).

The compounds below were run against T1, GIRK heteromers (UniProt P48542+P48549) (assay: concentration-response after PIP2 hydrolysis by light-sensitive phosphatase, whole-cell patch-clamp in mammalian cells). Settings: stimulation of light-sensitive phosphatase, FIGS. 20A-20C.
T1 construct: expressed in transfected cells; HEK293-T in the methods
T1 sequence (P48549 1-501): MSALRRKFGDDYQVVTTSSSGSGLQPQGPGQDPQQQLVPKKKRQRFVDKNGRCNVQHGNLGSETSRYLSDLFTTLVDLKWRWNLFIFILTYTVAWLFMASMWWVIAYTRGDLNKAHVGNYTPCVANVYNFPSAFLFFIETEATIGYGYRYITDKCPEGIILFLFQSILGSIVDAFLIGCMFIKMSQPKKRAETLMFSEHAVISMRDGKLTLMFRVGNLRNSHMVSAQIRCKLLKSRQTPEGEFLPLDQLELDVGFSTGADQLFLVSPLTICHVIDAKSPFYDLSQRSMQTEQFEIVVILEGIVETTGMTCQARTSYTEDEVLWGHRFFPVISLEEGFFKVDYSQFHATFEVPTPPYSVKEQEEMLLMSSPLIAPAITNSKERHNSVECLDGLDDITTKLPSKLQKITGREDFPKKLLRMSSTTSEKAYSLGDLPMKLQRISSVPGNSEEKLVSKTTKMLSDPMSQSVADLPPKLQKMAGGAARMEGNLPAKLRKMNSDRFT
T1 sequence (P48542 1-425): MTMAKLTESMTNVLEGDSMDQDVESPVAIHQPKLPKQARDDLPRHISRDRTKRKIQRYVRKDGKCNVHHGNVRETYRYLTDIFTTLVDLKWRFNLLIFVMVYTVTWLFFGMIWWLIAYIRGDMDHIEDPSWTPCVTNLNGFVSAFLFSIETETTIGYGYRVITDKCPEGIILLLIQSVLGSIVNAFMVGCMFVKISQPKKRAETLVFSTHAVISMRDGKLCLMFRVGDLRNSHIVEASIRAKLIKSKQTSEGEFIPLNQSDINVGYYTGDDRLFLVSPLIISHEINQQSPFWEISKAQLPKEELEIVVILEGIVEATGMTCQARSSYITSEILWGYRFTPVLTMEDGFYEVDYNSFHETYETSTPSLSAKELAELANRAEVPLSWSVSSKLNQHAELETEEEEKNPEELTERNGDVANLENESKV
Format: cell-based
From the text: The MD simulations indicated a PIP2-dependent activation effect by ML297 and the GAT compounds in GIRK heteromers leading to channel gating. To experimentally test the role of PIP2 in channel activation by ML297 and the GAT compounds, the inventors proceeded to first manipulate PIP2 levels by inducing a light-sensitive phosphatase in whole-cell patch-clamp experiments in mammalian cells and to examine the effects of the activating compounds (FIGS. 20A-20C).
Light-activated phosphatase system: The inventors used a light-activated phosphatase system to dephosphorylate PIP2 that is comprised of two fusion proteins: CRY2-5-ptaseOCRL contains the photolyase domain of cryptochrome 2 (CRY2) and the inositol 5-phosphatase domain of the […] oculocerebrorenal syndrome protein (OCRL), while CIBN-CAAX contains the CRY2 binding domain (CIBN) and a C-terminal CAAX box for plasma membrane targeting. When CRY2-5-ptaseOCRL and CIBN-CAAX fusion proteins are co-expressed and exposed to blue light between 458-488 nm, the 5-ptase is localized to the plasma membrane, where it dephosphorylates PIP2. […] The 5-ptaseOCRL system was activated using a 460 nm LED (Luminus) that was focused on the cells through the objective lens of an inverted microscope (Nikon).
Patch-clamp recording: Whole-cell currents were recorded with an Axopatch 200B amplifier (Molecular Devices) controlled via a USB-interface (National Instruments) using WinWCP software (University of Strathclyde). Currents were acquired through a lowpass Bessel filter at 2 kHz and were digitized at 10 kHz. […] Cells for study were selected based on GFP expression using an epifluorescence microscope (Nikon). […] The barium-sensitive component of the current, observed when cells were perfused with the high-K^+ buffer, was analyzed and was determined by perfusing 5 mM BaCl2 in the high-K^+ buffer at the end of each experiment. […]

Row | SMILES | decrease in potency following hydrolysis of PIP2 [fold]
1 | Cc1cc(NC(=O)Nc2ccc(Br)s2)n(-c2ccccc2)n1 [GAT1508, 1-(5-bromothiophen-2-yl)-3-(3-methyl-1-phenyl-1H-pyrazol-5-yl)urea] | ~2
2 | Cc1cc(NC(=O)Nc2ccc(C)s2)n(-c2ccccc2)n1 [GAT1521, 1-(3-methyl-1-phenyl-1H-pyrazol-5-yl)-3-(5-methylthiophen-2-yl)urea] | ~3.7
3 | Cc1cc(NC(=O)Nc2ccc(F)c(F)c2)n(-c2ccccc2)n1 [ML297, reference compound] | ~3
